From US4463001A, “6-Substituted 6H-dibenzo[b,d]pyran derivatives and process for their preparation” (Farmitalia Carlo Erba S.p.A., priority 1980, dated 1984)

Experiments:
[1] = orientative acute toxicity (LD50) in mice; settings: mouse, in vivo, single oral administration, assessed on seventh day
Method: The toxicity of the compounds of the invention is negligible. Nine hours food deprived mice were treated orally with single administration of increasing doses, then housed and normally fed. The orientative acute toxicity (LD50) was assessed on the seventh day after the treatment and, for example, the following data were obtained: […]

[2] = test system: herpes simplex virus strain 1RC; assay: herpes simplex virus experimental infection in mice; assay type: in vivo, CD-1 mice; settings: single dose one or two days after the infection
Method: (§1) The antiviral activity of the compound of the invention was, for example, evaluated on influenza and herpes simplex viruses experimental infections in mice.
(§2) Groups of CD-1 mice were infected intranasally with the strain APR 8 of influenza virus and other groups were infected intraperitoneally with the strain 1RC of herpes simplex virus. The tested compounds were administered through various routes, e.g. intraperitoneally, subcutaneously, orally.
(§3) The effect of the tested compounds, against the influenza virus, was evaluated on the basis of the number of lung lesions and, against the herpes infection, the parameter considered was the protection from mortality since, as is known, herpes simplex infection is lethal in mice.

[3] = test system: influenza virus strain APR 8; assay: influenza virus experimental infection in mice; assay type: in vivo, CD-1 mice; settings: single dose one or two days after the infection
Method: as §1, §2, §3

[4] = test system: antibody response against sheep red blood cells (SRBC); assay: antibody response induced in mice by suboptimal dose of sheep red blood cells (immunomodulating activity); assay type: in vivo, mice (female CD-1); settings: i.p., 50 and 5 mg/kg two hours before antigen, vs control group, six days later
Method: Their immunomodulating activity is, for example, proven by their capacity to modify the antibody response induced in mice by a suboptimal dose of sheep red blood cells (SRBC) injected by intraperitoneal route (i.p.).
Groups of ten female CD-1 mice were injected i.p. with 2×10^6 SRBC as antigen. The tested compounds were administered i.p. at two dosage levels: 50 and 5 mg/kg body weight, two hours before the administration of the antigen. A control group of mice received SRBC and saline instead of the compounds. Six days later the mice were killed and antibody titres against SRBC determined in their sera, according to Williams C. A.: Methods in Immunology and Immunochemistry, C. A. Williams and M. W. Chase, Eds. Academic Press, New York, Vol. II, page 152, 1977.

[5] = test system: restraint ulcers; assay: inhibition of restraint ulcers in rats (anti-ulcerogenic activity); assay type: in vivo, rat (Sprague-Dawley male); settings: po, 4 h; rat, p.o., approximate ED50; read-out: Antiulcerogenic activity ED50 p.o.
From the text: The compounds of the invention are also useful for reducing the undesirable gastrointestinal side-effects resulting from systemic administration of anti-inflammatory prostaglandin synthetase inhibitors and may be, therefore, used for this purpose in association with them. The anti-ulcerogenic activity of the compounds of the invention is shown, e.g., by the fact that they are active in the test of the inhibition of restraint ulcers in rats, according to the method of Bonfils et al., (Therapie, 1960, 5, 1096; Jap. J. Pharmac. 1945, 43, 5).
According to this method, the tested compounds were administered per os (p.o.) one hour before the immobilization. Six Sprague-Dawley male rats (100-120 g) fasted 24 hours were used for the experiment: a square flexible small-mesh wire netting was used for the immobilization and 4 hours after the immobilization the rats were sacrificed, their stomachs were removed and the lesions counted under a dissecting microscope.

[6] = test system: syndrome induced by oxotremorine; assay: antagonism against syndrome induced by oxotremorine in mice (anti-cholinergic activity); assay type: in vivo, mice (male); settings: Mus musculus, po, approximate ED50, read-out: Anticholinergic activity ED50 p.o.
Method: Considering that many anti-ulcer agents display, as does atropine, a remarkable but undesired anti-cholinergic activity, the compounds of the invention were also assessed for their antagonism against syndrome induced by oxotremorine in mice, according to the method described by Leszkovszky G. P. and Tardos L. (Europ. J. Pharmac. 1971, 15, 310). According to this method 5 male mice, 20-25 g body weight, were used for each group.

[7] = test system: gastric secretion; assay: inhibition of gastric secretion in pylorus-ligated rats (antisecretory activity, method of Shay); assay type: in vivo, rat (Sprague-Dawley male); settings: 4 h; rat, intraduodenal, approximate ED50; read-out: Antisecretory activity ED50 i.d.
Method: According to this method the tested compounds were injected intraduodenally (i.d.) at the time of ligature.
Six Sprague-Dawley male rats (110-130 g) were used for each group. Twenty-four hours before the test, the rats were deprived of food but the water supply was maintained. On the day of the operation, the pylorus was ligated under light ether anaesthesia. Four hours after the ligature, the rats were sacrificed. The stomach secretion was collected and centrifugated at 3500 r.p.m. for 10 minutes and the volume, less sediment, was determined.
The amount of free hydrochloric acid in the gastric juice was determined by titration against 0.01N sodium hydroxide, to an end point of pH 7.

[8] = lipid-lowering activity in rats fed standard MS/K Altromin diet (Experiment 2); assay type: in vivo, rat (Iva-SIV (SPF) male)
Method: (§4) The activity of the compounds of the invention was evaluated: (1) on groups of Icem:CER (SPF Caw) male rats, fed for six days with hypercholesterolaemic diet according to C. E. Day: Shur P. E., Shultz H. R., Day C. E. (Ed.) Atherosclerosis and drug discovery Plenum Pub. Corp., 217 (1976): Experiment 1; or (2) or groups of Iva-SIV (SPF) male rats fed standard MS/K Altromin® diet: Experiment 2. MS/K Altromin is a trade mark.
(§5) The tested compounds were suspended in Methocel (methyl-cellulose, a 0.5% solution in water) and administered by stomach tube at the dose of 50 mg/kg for 4 days in both the experiments.
(§6) Groups of animals were treated with the suspending agent only (control groups).
(§7) The total serum cholesterol was determined with the method of Allain, Clin. Chem., 1974, 20, 470.
The serum triglycerides were determined with the method of Mendez, J. Clin. Chem., 1975, 21, 768.
(§8) The total serum HDL cholesterol was determined according to Demacker P. N. H., Clin. Chem., 1977, 23, 1238.
(§9) The total β-lipoprotein cholesterol was determined by difference between total serum cholesterol and HDL cholesterol. Statistical analysis in experiment 1 and 2 was performed by the Student's t test for independent samples or by the Cochran's test when the variances were not homogeneous at the F ratio test [Bliss C. I., Statistics in Biology, Vol. 1, page 213 McGraw Hill Book Company, New York 1967; Cochran W. G., Cox C. H., Experimental designs-J. Willey and Sons Inc., New York, II Ed. (1968), page 100].

[9] = lipid-lowering activity in rats fed hypercholesterolaemic diet (Experiment 1); assay type: in vivo, rat (Icem:CER (SPF Caw) male)
Method: as §4, §5, §6, §7, §8, §9

[10] = Experiment 2, 50 mg/kg/os, vs control

Work on `CC1(C(=O)O)Oc2ccccc2-c2ccccc21` (centres unmarked) [FCE 20562, 6H,6-carboxy-6-methyl-dibenzo[b,d]pyran] yielded an LD50 at 168 h [1] of 400 to 800 mg/kg.
For `CN(C)CCOC(=O)C1Oc2ccccc2-c2ccccc21` (centres unmarked) [FCE 20696, 6H,6-(2-dimethylaminoethoxycarbonyl)-dibenzo[b,d]pyran], the “protection from mortality (animals protected from death)” value [2] was “up to 45%”, the LD50 at 168 h [1] was 400 to 800 mg/kg and the “number of lung lesions” value [3] was “reducing substantially the number of lung lesions”. The “antibody titres against SRBC” value [4] was “increased the antibody titers several fold as compared to control group”.
Work on `CC1(C(=O)O)Oc2ccc(Cl)cc2-c2ccccc21` (centres unmarked) [FCE 20770, 6H,6-carboxy-6-methyl-2-chloro-dibenzo[b,d]pyran] yielded an LD50 at 168 h [1] of 400 to 800 mg/kg.
For `N#CC1(CO)Oc2ccccc2-c2ccccc21` (centres unmarked) [FCE 20518, 6H,6-cyano-6-hydroxymethyl-dibenzo[b,d]pyran], the LD50 at 168 h [1] was > 800 mg/kg.
For `NCC1Oc2ccccc2-c2ccccc21` (centres unmarked) [FCE 20524, 6H,6-aminomethyl-dibenzo[b,d]pyran], the ED50 [5] was 4.8 mg/kg, the ED50 [6] was > 100 mg/kg and the ED50 [7] was 6 mg/kg. For the same molecule, the LD50 at 168 h [1] was 400 to 800 mg/kg.
With `CC1(C#N)Oc2ccccc2-c2ccccc21` (centres unmarked) [FCE 20519, 6H,6-cyano-6-methyl-dibenzo[b,d]pyran] the LD50 at 168 h [1] was > 800 mg/kg.
For `O=C(O)C1(CO)Oc2ccccc2-c2ccccc21` (centres unmarked) [FCE 20561, 6H,6-carboxy-6-hydroxymethyl-dibenzo[b,d]pyran], the LD50 at 168 h [1] was > 800 mg/kg.
In the case of `c1ccc2c(c1)OC(N1CCNCC1)c1ccccc1-2` (centres unmarked) [FCE 20618, 6H,6-(1-piperazinyl)-dibenzo[b,d]pyran], the ED50 [5] is reported as 7 mg/kg, the ED50 [6] is reported as > 100 mg/kg and the ED50 [7] is reported as 1.5 mg/kg. The LD50 at 168 h [1] was 400 to 800 mg/kg.
In the case of `CCN(CC)CCOC(=O)C1Oc2ccccc2-c2ccccc21` (centres unmarked) [FCE 21849, 6H,6-(2-diethylaminoethoxycarbonyl)-dibenzo[b,d]pyran], the LD50 at 168 h [1] is reported as 400 to 800 mg/kg and the “antibody titres against SRBC” value [4] is reported as “increased the antibody titers several fold as compared to control group”.
With `O=C(O)CC1Oc2ccccc2-c2ccccc21` (centres unmarked) [FCE 20881, 6H,6-carboxymethyl-dibenzo[b,d]pyran] the LD50 at 168 h [1] was 400 to 800 mg/kg, the “β-lipoprotein cholesterol, mean ± S.E.” value ([8]; Experiment 2, 50 mg/kg/os for 4 days, standard diet, control 27.1 ± 1.1) was 20.5 ± 0.8 mg/100 ml and the “Total serum cholesterol, mean ± S.E.” value ([8]; Experiment 2, 50 mg/kg/os for 4 days, standard diet, control 66.3 ± 1.7) was 57.7 ± 1.5 mg/100 ml. For the same molecule, the “Serum triglycerides (printed "trygylcerides"), mean ± S.E.” value ([8]; Experiment 2, 50 mg/kg/os for 4 days, standard diet, control 228.7 ± 18.9) was 168.3 ± 13.4 mg/100 ml, the “Serum triglycerides, Student's t test result” value [8, 10] was “S (significant (p <0.05))” and the “Total serum cholesterol, Student's t test result” value [8, 10] was “HS (highly significant (p <0.01))”. For the same molecule, the “β-lipoprotein cholesterol, Student's t test result” value [8, 10] was “HS (highly significant (p <0.01))”, the “effect on total serum cholesterol, β-lipoprotein cholesterol and serum triglycerides” value ([8]; Experiment 2, in words) was “decrease the total serum cholesterol, in particular β-lipoprotein cholesterol and serum triglycerides” and the “Serum HDL total cholesterol, mean ± S.E.” value ([9]; Experiment 1, 50 mg/kg/os for 4 days, hypercholesterolaemic diet, control 13.2 ± 1.8) was 23.2 ± 0.5 mg/100 ml. For the same molecule, the “Total serum cholesterol, mean ± S.E.” value ([9]; Experiment 1, 50 mg/kg/os for 4 days, hypercholesterolaemic diet, control 459.6 ± 51.7) was 240.0 ± 20.7 mg/100 ml and the “effect on total serum cholesterol and total HDL cholesterol” value ([9]; Experiment 1, in words) was “decrease the total serum cholesterol and to increase the total HDL cholesterol”.
`N#CC1Oc2ccccc2-c2ccccc21` (centres unmarked) [FCE 20493, 6H,6-cyano-dibenzo[b,d]pyran] showed an LD50 at 168 h [1] of 400 to 800 mg/kg.
For `CCOC(=O)C1Oc2ccccc2-c2ccccc21` (centres unmarked) [FCE 20521, 6H,6-ethoxycarbonyl-dibenzo[b,d]pyran], the LD50 at 168 h [1] was > 800 mg/kg.
